The values that follow come from US9772334B2, “Inflammatory bowel disease markers and therapies for colitis-associated intestinal fibrosis” (THE REGENTS OF THE UNIVERSITY OF CALIFORNIA, priority 2012, dated 2017).

The test system of one series is CCD-18Co fibroblasts. In words: β-tubulin expression and tubulin distribution in CCD-18Co fibroblasts. The format is cell-based, human. The note with it: for tubulin distribution (tubulin tracker): 10 μM, 24 hours.
Series [1] relates to TNFα expression in Raw264.7 macrophages. In words: PAMP induced TNFα expression in Raw264.7 macrophages. Format: cell-based, mouse. The note with it: for LPS induced TNFα expression under IGF-1R inhibition: IGF-1R inhibitor 10 μM pretreatment 30 minutes, LPS 0.1 μg/ml. On the procedure:
(§1) To identify the anti-inflammatory mechanism of cathelicidin, human PBMCs and mouse macrophages to were exposed to PAMP signals (LPS and E. coli DNA) in the presence of cathelicidin LL-37 or mCRAMP (1-10 μM).

The subject of series [2] is human colonic CCD-18Co fibroblasts. The series can be described thus: TGF-β1 and IGF-1 induced collagen (COL1A2) expression in CCD-18Co fibroblasts. The format is cell-based. From the text:
Collagen (COL1A2) and total ERK protein expression was detected by Western blot analyses and quantitative image densitometry.

The next series has as its system CCD-18Co. The series can be described thus: Cell migration of CCD-18Co in modified Boyden chamber. Format: cell-based, human. The settings on record: LL-37 0-10 μM; 37° C. for 8 hours. On the procedure: Fibroblasts accumulated in the mucosal and submucosal locations as collagen deposition. […] Three different locations (3 separate images) per sample were counted. […] Cell migration was not affected by LL-37 (0-10 μM). Results are representative of 3 independent experiments.

In series [3] the test system is human primary colonic fibroblasts. The series can be described thus: TGF-β1 and IGF-1 induced COL1A2 mRNA expression in human primary colonic fibroblasts. Format: cell-based. The settings on record: LL-37 5-10 μM; 24 hours; p=0.0108 and p=0.0049; concentration dependent. On the procedure: Camp mRNA in Camp^−/− mice was undetectable. […] Collagen (COL1A2) and total ERK protein expression was detected by Western blot analyses and quantitative image densitometry. […] TGF-β1 and IGF-1 induced COL1A2 mRNA expression in colonic fibroblasts (P=0.049) was inhibited by LL-37 (5-10 μM, p=0.001) in concentration dependent manner. […] TGF-β1 and IGF-1 induced COL1A2 mRNA expression in colonic fibroblasts (P=0.0233) was inhibited by LL-37 (5-10 μM, p=0.0108 and p=0.0049) in concentration dependent manner. All experiments are representative of 3 independent experiments.

Another series has as its system NCM460 colonocytes. The series can be described thus: Apoptosis (cleaved PARP) in NCM460 colonocytes. Format: cell-based, human. The settings on record: LL-37 10 μM; proinflammatory cytokine cocktail or TNFα 10 ng/ml; 24 hours. On the procedure:
NCM460 cells were treated with proinflammatory cytokines cocktail or TNFα (10 ng/ml) with or without LL-37 (10 μM) for 24 hours. Apoptosis signaling molecule cleaved PARP was determined by Western blot and quantification. […] All experiments are representative of 3 independent experiments.

The test system of series [4] is Akt and ERK phosphorylation in CCD-18Co fibroblasts. In words: Akt and ERK phosphorylation in CCD-18Co fibroblasts (Western blot). The settings on record: 30 minutes, concentration dependent.
The subject of series [5] is TNFα expression in fresh human colonic biopsies. In words: LPS induced TNFα protein expression in fresh human colonic biopsies. The format is cell-based. The note with it: LL-37 10 μM; LPS 0.1 μg/ml; 16 hours. On the procedure:
Human intestinal biopsies were obtained from normal patients, UC patients and CD patients after informed consent in accordance with procedures established by the Cedars-Sinai Institutional Review Board, IRBs 3358 and 23705 and UCLA Institutional Review Board IRB 11-001527. Baseline characteristics were outlined in FIG. 12B. Some fresh biopsies were frozen until homogenization. Some fresh colonic biopsies were cut into ˜3×3 mm pieces and incubated in serum free DMEM with 1% penicillin/streptomycin (Invitrogen) and exposed to LPS and/or LL-37.

Series [6] concerns TNFα expression in human PBMCs. The series can be described thus: PAMP induced TNFα protein expression in human PBMCs. The settings on record: 16 hours. The format is cell-based. On the procedure:
as §1

In series [7] the test system is DSS mediated colitis. The note with it: animal models; Vieira et al. 2011; cited from earlier work.
Series [8] concerns human colonic epithelial NCM460 cells. In words: Cathelicidin protein level in conditioned media of NCM460 cells. The format is cell-based. The note with it: 5 mM; 16 hours; serum starved. From the text:
(§2) FIGS. 16A-16F show sodium butyrate inhibited colonic TNFα expression but not colonic microflora load. […] The decrease of TNFα levels in Camp^−/− mice was minimized (drop by 4 pg/μg protein), compared to wild-type mice (drop by 6 pg/μg protein). […] All experiments are representative of 3 independent experiments.

Series [9] concerns DSS mediated colitis. In words: DSS mediated colitis in mice, intraperitoneal sodium butyrate. Format: in vivo.
Description: FIGS. 15A-15D show endogenous cathelicidin induction by sodium butyrate ameliorated DSS mediated colitis in mice. FIG. 15A is an illustration of the administration of DSS and/or sodium butyrate to mCRAMP deficient (Camp^−/−) and wild-type mice (i.e., the experimental plan).
as §2
To investigate the role of endogenous cathelicidin induction in the amelioration of acute colitis, mCRAMP deficient (Camp^−/−) and wild-type mice were administered with DSS and/or sodium butyrate as illustrated in FIG. 15A. DSS colitis led to significant tissue damages (FIG. 15C) with body weight loss (FIG. 15B) and increased histology score (FIG. 15C).

A further series has as its system Raw264.7 macrophages. The series can be described thus: Camp mRNA expression in Raw264.7 macrophages. The format is cell-based, mouse. The note with it: 5 mM; 6 and 24 hours; serum starved.
The next series concerns UC disease activity. The note with it: humans; Vernia et al. 2000; cited from earlier work.
Setting [10] is: inhibitor 10 μM pretreatment 30 minutes, 72 hours, p=0.0005.

Entries after “also recorded” stand apart in the source; their conditions may differ.

For `COc1cccc(-c2cc(=O)c3ccccc3o2)c1N` [PD98059], in the series on CCD-18Co fibroblasts (inhibitor 10 μM pretreatment 30 minutes, LL-37 10 μM, 72 hours), the “involvement in the LL-37 mediated inhibition of β-tubulin expression” value is given as “not involved”.
Turning to `N#C/C(=C\c1ccc2oc(=O)[nH]c2c1)C(=O)c1ccc(O)c(O)c1` [AGL2263], the “LPS induced TNFα expression under IGF-1R inhibition” value in series [1] (16 hours) is “not affected”.
For the molecule `C=C1[C@@H](C)[C@H]2[C@H](Cc3ccccc3)NC(=O)[C@]23OC(=O)/C=C/[C@H](O)CCC[C@@H](C)C/C=C/[C@H]3[C@@H]1O` [cytochalasin B], the “tubulin distribution (tubulin tracker)” value in the series on CCD-18Co fibroblasts is listed as “shrunk tubulin network in cells”. Further, in the series on CCD-18Co fibroblasts (setting [10]), the “TGF-β1 and IGF-1 induced β-tubulin expression” value is “affected”. The “TGF-β1 and IGF-1 induced COL1A2 expression” value in [2] (setting [10]) was “affected”.
On to pertussis toxin, for which the “effect on the inhibitory effect of cathelicidin against LPS induced TNFα expression” value in series [1] (pertussis toxin 500 ng/ml pretreatment overnight, mCRAMP 1-10 μM, 16 hours) is “reversed; also recorded: revered”.
In the case of “LL-37 (LLGDFFRKSKEKIGKEFKRIVQRIKDFLRNLVPRTES)”, the “tubulin distribution (tubulin tracker)” value with CCD-18Co fibroblasts is recorded as “shrunk the tubulin network”. Besides, in the series with CCD-18Co fibroblasts (LL-37 10 μM, 72 hours), the β-tubulin expression result is on record as “inhibition”. Also, the “TGF-β1 and IGF-1 induced COL1A2 expression (Western blot, densitometry)” value in series [2] (10 μM LL-37, TGF-β1 50 ng/ml and IGF-1 10 ng/ml, 48 hours, p=0.0001) is “significantly reduces; also recorded: reduced”. In addition, the “TGF-β1 and IGF-1 induced COL1A2 mRNA expression” value in series [2] (LL-37 5-10 μM, 24 hours, p=0.001, concentration dependent) was “significantly reduces; also recorded: inhibited”; in series [3], “inhibited”. In the series with CCD-18Co, the cell migration result is reported as “not affected”. Also, in the series with NCM460 colonocytes, the “apoptosis (cleaved PARP, Western blot)” value is listed as “failed to reverse PARP cleavage; also recorded: did not affect apoptosis”. In [4] (LL-37 up to 10 μM), the ERK phosphorylation result was “significantly induced”. In addition, the Akt phosphorylation result in [4] is recorded as “significantly induced”. For the same molecule, the “LPS induced TNFα protein expression in conditioned media” value in series [5] was “almost abolished”; in [6] (LL-37 10 μM, LPS 0.1 μg/ml), “significantly reduced”. For the same molecule, the “E. coli DNA induced TNFα expression” value in series [6] (LL-37 1-10 μM, E. coli DNA 0.5 μg/ml) is reported as “no inhibitory effect”.
For `CCCC(=O)[O-].[Na+]` [sodium butyrate], the DSS mediated colitis result with DSS mediated colitis [7] is reported as “reduce”. For the same molecule, the “cathelicidin protein level in conditioned media” value in series [8] is “significantly increased”. In the series with DSS mediated colitis [9] (Camp−/− mice), the “decrease of colonic TNFα levels” value was found to be 21 % reduction and the “drop of colonic TNFα levels” value was 4 pg/μg protein. In addition, the “colonic microflora load (16S expression, PCR)” value with DSS mediated colitis [9] (DSS exposed mice) is reported as “did not cause significant change; also recorded: did not alter colonic 16S expression”. In the series with DSS mediated colitis [9] (DSS treated mice), the “colonic Camp mRNA expression” value was “significantly induced; also recorded: further augmented”. The “colonic mCRAMP protein expression (Western blot)” value in the series on DSS mediated colitis [9] (DSS treated wild-type mice) was “significantly induced; also recorded: increased colonic mCRAMP protein expression”. Further, in the series on DSS mediated colitis [9] (both wild-type and Camp−/− mice, p=0.04), the “colonic TNFα levels” value is “significantly reduced colonic TNFα levels”. Moreover, in the series with DSS mediated colitis [9] (wild-type mice), the “decrease of colonic TNFα levels” value is listed as 40 % reduction and the “drop of colonic TNFα levels” value worked out at 6 pg/μg protein. For the same molecule, the histology score entry in the series with DSS mediated colitis [9] (wild-type mice, intraperitoneal) is on record as “significant decrease of histology score”. Moreover, the “Camp mRNA expression” value in the series with Raw264.7 macrophages is listed as “significantly increased Camp mRNA expression”. In addition, the “clinical UC disease activity” value in the series with UC disease activity was “reduce clinical UC disease activity”.
On to `N#C/C(=C\c1ccc(O)c(O)c1)C(=O)c1ccc(O)c(O)c1` [AG538], for which the “LPS induced TNFα expression under IGF-1R inhibition” value in [1] (16 hours) is on record as “not affected”.
Regarding “mouse IGF-1: mouse insulin like growth factor-1”, the “effect on the mCRAMP mediated inhibition of LPS induced TNFα secretion” value in series [1] (mouse IGF-1 80 pg/ml pretreatment 30 minutes, mCRAMP 10 μM, 16 hours) was “reversed the mCRAMP mediated inhibition”.
Turning to `CN([C@@H](Cc1ccc(OS(=O)(=O)c2cccc3cnccc23)cc1)C(=O)N1CCN(c2ccccc2)CC1)S(=O)(=O)c1cccc2cnccc12` [KN62], the “effect on the anti-inflammatory effect of cathelicidin against LPS” value in series [1] (antagonist 10 μM pretreatment 30 minutes, mCRAMP 10 μM, 16 hours) is “did not alter the anti-inflammatory effect of cathelicidin”.
With `N#CC(=C(/N)Sc1ccccc1N)/C(C#N)=C(\N)Sc1ccccc1N` [U0126], in [1], the “LPS induced TNFα expression” value is reported as “inhibited; also recorded: suppressed LPS induced TNFα expression”.
